Structures are written as SMILES. Counter-ions that a name gives are not always drawn.

In this test the target is T1, dopamine D2 receptor (Homo sapiens, UniProt P14416).
T1 construct: expressed in transfected cells; host or cells: Chinese Hamster Ovary (CHO) cells, membranes
T1 sequence (P14416 whole entry): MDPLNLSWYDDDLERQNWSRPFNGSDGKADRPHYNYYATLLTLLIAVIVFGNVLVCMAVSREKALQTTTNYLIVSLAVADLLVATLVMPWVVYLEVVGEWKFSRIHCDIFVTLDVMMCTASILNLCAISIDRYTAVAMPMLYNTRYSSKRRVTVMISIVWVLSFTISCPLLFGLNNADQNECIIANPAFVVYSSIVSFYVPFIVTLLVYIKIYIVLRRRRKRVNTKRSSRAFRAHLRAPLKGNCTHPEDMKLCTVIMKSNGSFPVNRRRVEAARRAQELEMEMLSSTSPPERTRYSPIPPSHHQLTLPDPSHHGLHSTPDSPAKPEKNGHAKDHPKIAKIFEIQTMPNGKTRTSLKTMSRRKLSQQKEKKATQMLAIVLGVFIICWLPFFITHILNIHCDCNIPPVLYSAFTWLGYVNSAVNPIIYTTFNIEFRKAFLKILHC
Kind of test: GTPS scintillation proximity assay (GTPS-SPA), CHO_D2 membranes. Conditions: up to the highest concentration tested in the assay (3 μM). It counts as biochemical. The procedure: Functional potency of compounds of this invention can be measured by the following GTPS scintillation proximity assay (GTPS-SPA). Cells used in the study are Chinese Hamster Ovary (CHO) Cells. • Cell Line • CHO_D2 • CHO_D3 • Dopamine CHO D3 (Biocat no 1060) transduced with bacmam G0 G-protein (Biocat no 97886)
All steps are performed at 4° C. Cell membranes are prepared as follows. Cell pellets are resuspended in 10 volumes of 50 mM HEPES, 1 mM EDTA pH 7.4, using KOH. Cells are homogenised within a glass waring blender for 2 bursts of 15 secs in 200 mls of buffer (50 mM HEPES, 1 mM leupeptin, 25 μg/ml bacitracin, 1 mM EDTA, 1 mM PMSF, 2 μM Pepstatin A). (the latter 2 reagents added as fresh ×100 and ×500 stocks respectively in ethanol). The blender is plunged into ice for 5 mins after the first burst and 10-40 mins after the final burst to allow foam to dissipate. The material is then spun at 500 g for 20 mins and the supernatant spun for 36 mins at 48.000 g. The pellet is resuspended in the same buffer as above but without PMSF and Pepstatin A. The material is then forced through a 0.6 mm needle, made up to the required volume, (usually ×4 the volume of the original cell pellet), aliquoted and stored frozen at −80° C.
The final top concentration of test drug is 3 μM in the assay and 11 points serial dilution curves 1:4 in 100% DMSO are carried out using a Biomek FX. The test drug at 1% (0.5 ul) total assay volume (TAV) is added to a solid, white Greiner polypropylene 384-well assay plate. 50% TAV (25 μl) of precoupled (for 60 mins at RT) membranes, 5 μg/well, and Wheatgerm Agglutinin Polystyrene Scintillation Proximity Assay beads (RPNQ0260, Amersham), 0.25 mg/well, in 20 mM HEPES (pH 7.4, 100 mM NaCl, 10 mM MgCl2), 60 μg/mL saponin and 30 uM GDP is added. The third addition is a 20% TAV (10 ul) addition of either buffer, (agonist format) or EC80 final assay concentration of agonist, Quinelorane, prepared in assay buffer (antagonist format). The assay is started by the addition of 29% TAV (15 ul) of GTP[35S] 0.38 nM final (37 MBq/mL, 1160 Ci/mmol, Amersham). After all additions assay plates are spun down for 1 min at 1,000 rpm. The final assay cocktail ([…]) is incubated at room temperature to equilibrate for 3-6 hours before reading on a ViewLux™ (613/55 filter) luminescence imager 5 min/plate.
The effect of the test drug over the basal generates fpKi values of test drug are calculated from the IC50 generated by “antagonist format” experiment, using Cheng & Prusoff equation: fKi=IC50/1+([A]/EC50) where: [A] is the concentration of the agonist Quinelorane in the assay and EC50 is the Quinelorane EC50 value obtained in the same experiment. fpKi is defined as −logfKi. • pKi results are only estimated to be accurate to about 0.3-0.5.
A general note: In a scintillation proximity assay essentially only radioactivity close to the scintillant gives light.
For `Cl.O=c1[nH]c(=O)n(CCCN2C[C@@H]3C[C@]3(c3ccc(C(F)(F)F)cc3F)C2)cc1-c1cccs1` [Example E12, 1-(3-{(1S,5R)-1-[2-fluoro-4-(trifluoromethyl)phenyl]-3-azabicyclo[3.1.0]hex-3-yl}propyl)-5-(2-thienyl)-2,4(1H,3H)-pyrimidinedione hydrochloride], the “activity in the D2 GTPS-SPA assay” value is on record as “no activity”.

Regarding `Cc1ccc(-c2cn(CCCN3C[C@@H]4C[C@]4(c4ccc(C(F)(F)F)cc4)C3)c(=O)[nH]c2=O)cn1.Cl.Cl` [Example E40, 5-(6-methyl-3-pyridinyl)-1-(3-{(1S,5R)-1-[4-(trifluoromethyl)phenyl]-3-azabicyclo[3.1.0]hex-3-yl}propyl)-2,4(1H,3H)-pyrimidinedione dihydrochloride], the “activity in the D2 GTPS-SPA assay” value is “no activity”.

For `Cl.Cl.N#Cc1cccc(-c2cn(CCCN3C[C@@H]4C[C@]4(c4ccc(C(F)(F)F)cc4)C3)c(=O)[nH]c2=O)n1` [Example E47, 6-[2,4-dioxo-1-(3-{(1S,5R)-1-[4-(trifluoromethyl)phenyl]-3-azabicyclo[3.1.0]hex-3-yl}propyl)-1,2,3,4-tetrahydro-5-pyrimidinyl]-2-pyridinecarbonitrile dihydrochloride], the “activity in the D2 GTPS-SPA assay” value is recorded as “no activity”.

For the molecule `Cl.O=c1[nH]c(=O)n(CCCN2C[C@@H]3C[C@]3(c3ccc(C(F)(F)F)cc3)C2)cc1-c1cccnn1` [Example E26, 5-(3-pyridazinyl)-1-(3-{(1S,5R)-1-[4-(trifluoromethyl)phenyl]-3-azabicyclo[3.1.0]hex-3-yl}propyl)-2,4(1H,3H)-pyrimidinedione hydrochloride], the “activity in the D2 GTPS-SPA assay” value is reported as “no activity”.

Consider `Cc1ccc(-c2cn(CCCN3C[C@@H]4C[C@]4(c4ccc(C(F)(F)F)cc4)C3)c(=O)[nH]c2=O)c(F)n1.Cl.Cl` [Example E35, 5-(2-fluoro-6-methyl-3-pyridinyl)-1-(3-{(1S,5R)-1-[4-(trifluoromethyl)phenyl]-3-azabicyclo[3.1.0]hex-3-yl}propyl)-2,4(1H,3H)-pyrimidinedione dihydrochloride], for which the “activity in the D2 GTPS-SPA assay” value is “no activity”.

Turning to `Cl.O=c1[nH]c(=S)ccn1CCCCN1C[C@@H]2C[C@]2(c2ccc(C(F)(F)F)cc2)C1` [Example E33, 4-thioxo-1-(4-{(1S,5R)-1-[4-(trifluoromethyl)phenyl]-3-azabicyclo[3.1.0]hex-3-yl}butyl)-3,4-dihydro-2(1H)-pyrimidinone hydrochloride], the “activity in the D2 GTPS-SPA assay” value is given as “no activity”.

With `Cc1cc(F)ccc1-c1cn(CCCN2C[C@@H]3C[C@]3(c3ccc(C(F)(F)F)cc3)C2)c(=O)[nH]c1=O` [Example E51, 5-(4-fluoro-2-methylphenyl)-1-(3-{(1S,5R)-1-[4-(trifluoromethyl)phenyl]-3-azabicyclo[3.1.0]hex-3-yl}propyl)-2,4(1H,3H)-pyrimidinedione], the “activity in the D2 GTPS-SPA assay” value is listed as “no activity”.

As for `Cc1nc(-c2cn(CCCN3C[C@@H]4C[C@]4(c4ccc(C(F)(F)F)cc4)C3)c(=O)[nH]c2=O)ccc1F.Cl.Cl` [Example E39, 5-(5-fluoro-6-methyl-2-pyridinyl)-1-(3-{(1S,5R)-1-[4-(trifluoromethyl)phenyl]-3-azabicyclo[3.1.0]hex-3-yl}propyl)-2,4(1H,3H)-pyrimidinedione dihydrochloride], the “activity in the D2 GTPS-SPA assay” value is on record as “no activity”.

With `Cl.Cl.O=c1[nH]c(=O)n(CCCN2C[C@@H]3C[C@]3(c3ccc(C(F)(F)F)cc3)C2)cc1-c1cc(F)cnc1Cl` [Example E45, 5-(2-chloro-5-fluoro-3-pyridinyl)-1-(3-{(1S,5R)-1-[4-(trifluoromethyl)phenyl]-3-azabicyclo[3.1.0]hex-3-yl}propyl)-2,4(1H,3H)-pyrimidinedione dihydrochloride], the “activity in the D2 GTPS-SPA assay” value is recorded as “no activity”.

On to `Cc1ccc(-c2cn(CCCN3C[C@@H]4C[C@]4(c4ccc(C(F)(F)F)cc4)C3)c(=O)[nH]c2=O)c(Cl)n1.Cl.Cl` [Example E63, 5-(2-chloro-6-methyl-3-pyridinyl)-1-(3-{(1S,5R)-1-[4-(trifluoromethyl)phenyl]-3-azabicyclo[3.1.0]hex-3-yl}propyl)-2,4(1H,3H)-pyrimidinedione dihydrochloride], for which the “activity in the D2 GTPS-SPA assay” value is “no activity”.

Regarding `Cc1ncccc1-c1cn(CCCCN2C[C@@H]3C[C@]3(c3ccc(C(F)(F)F)cc3)C2)c(=O)[nH]c1=O.Cl.Cl` [Example E29, 5-(2-methyl-3-pyridinyl)-1-(4-{(1S,5R)-1-[4-(trifluoromethyl)phenyl]-3-azabicyclo[3.1.0]hex-3-yl}butyl)-2,4(1H,3H)-pyrimidinedione dihydrochloride], the “activity in the D2 GTPS-SPA assay” value is given as “no activity”.

For `Cl.Cl.O=c1[nH]c(=O)n(CCCN2C[C@@H]3C[C@]3(c3ccc(C(F)(F)F)cc3)C2)cc1-c1ccncc1F` [Example E44, 5-(3-fluoro-4-pyridinyl)-1-(3-{(1S,5R)-1-[4-(trifluoromethyl)phenyl]-3-azabicyclo[3.1.0]hex-3-yl}propyl)-2,4(1H,3H)-pyrimidinedione dihydrochloride], the “activity in the D2 GTPS-SPA assay” value is “no activity”.

Regarding `Cc1cc(-c2cn(CCCN3C[C@@H]4C[C@]4(c4ccc(C(F)(F)F)cc4)C3)c(=O)[nH]c2=O)ccn1.Cl` [Example E23, 5-(2-methyl-4-pyridinyl)-1-(3-{(1S,5R)-1-[4-(trifluoromethyl)phenyl]-3-azabicyclo[3.1.0]hex-3-yl}propyl)-2,4(1H,3H)-pyrimidinedione hydrochloride], the “activity in the D2 GTPS-SPA assay” value was “no activity”.

For the molecule `O=c1[nH]c(=O)n(CCCN2CC3C[C@]3(c3ccc(C(F)(F)F)cc3)C2)cc1-c1cccc(C(F)(F)F)n1` (stereo partly shown) [Example E38, dihydrochloride], the “activity in the D2 GTPS-SPA assay” value is “no activity”.

As to `Cc1ncccc1-c1cn(CCCN2C[C@@H]3C[C@]3(c3ccc(C(F)(F)F)cc3)C2)c(=O)[nH]c1=O.Cl.Cl` [Example E19, 5-(2-methyl-3-pyridinyl)-1-(3-{(1S,5R)-1-[4-(trifluoromethyl)phenyl]-3-azabicyclo[3.1.0]hex-3-yl}propyl)-2,4(1H,3H)-pyrimidinedione dihydrochloride], the “activity in the D2 GTPS-SPA assay” value was “no activity”.

For `Cl.O=c1ccn(CCCCN2C[C@@H]3C[C@]3(c3ccc(C(F)(F)F)cc3)C2)c(=O)[nH]1` [Example E5, 1-(4-{(1S,5R)-1-[4-(trifluoromethyl)phenyl]-3-azabicyclo[3.1.0]hex-3-yl}butyl)-2,4(1H,3H)-pyrimidinedione hydrochloride], the “activity in the D2 GTPS-SPA assay” value is “no activity”.

As for `Cl.Cl.O=c1[nH]c(=O)n(CCCN2C[C@@H]3C[C@]3(c3ccc(C(F)(F)F)cc3F)C2)cc1-c1cccnc1F` [Example E48, 5-(2-fluoro-3-pyridinyl)-1-(3-{(1S,5R)-1-[2-fluoro-4-(trifluoromethyl)phenyl]-3-azabicyclo[3.1.0]hex-3-yl}propyl)-2,4(1H,3H)-pyrimidinedione dihydrochloride], the “activity in the D2 GTPS-SPA assay” value was “no activity”.

Regarding `Cl.N#Cc1cn(CCCCN2C[C@@H]3C[C@]3(c3ccc(C(F)(F)F)cc3)C2)c(=O)[nH]c1=O` [Example E18, 2,4-dioxo-1-(4-{(1S,5R)-1-[4-(trifluoromethyl)phenyl]-3-azabicyclo[3.1.0]hex-3-yl}butyl)-1,2,3,4-tetrahydro-5-pyrimidinecarbonitrile hydrochloride], the “activity in the D2 GTPS-SPA assay” value was “no activity”.

Regarding `Cc1ccccc1-c1cn(CCCN2C[C@@H]3C[C@]3(c3ccc(C(F)(F)F)cc3)C2)c(=O)[nH]c1=O.Cl` [Example E31, 5-(2-methylphenyl)-1-(3-{(1S,5R)-1-[4-(trifluoromethyl)phenyl]-3-azabicyclo[3.1.0]hex-3-yl}propyl)-2,4(1H,3H)-pyrimidinedione hydrochloride], the “activity in the D2 GTPS-SPA assay” value is reported as “no activity”.

These data come from US7727988B2, “Azabicyclo[3.1.0]hex-3-yl}alkyl)pyrimidinedione” (Glaxo Group Limited, priority 2006, dated 2010).
